Laboratory results: patent US20100003217A1, “Compounds and Pharmaceutical Compositions for the Treatment of Viral Infections” (priority 2008, published 2010)

How the values were obtained:
[1] = biological target: CYP2D6 (Homo sapiens, UniProt P10635); assay: Incubation with human recombinant CYP450 supersomes, 2D6; assay type: in vitro ADME; conditions: CYP450 2D6 supersomes, 60 min, 10 μM, average of two experiments
Experimental: (§1) Supersomes—Incubations were conducted in a final volume of 0.1 mL reaction buffer (50-100 mM potassium phosphate, pH 7.4 or 100 mM Tris-HCL, pH 7.4) according to protocol provided with each CYP450 supersome. Each reaction contained […] of CYP450 supersome, 1.3 mM NADP^+, 3.3 mM glucose-6-phosphate, 0.4 U/mL glucose-6-phosphate dehydrogenase, 3.3 mM MgCl2 and 10 μM Compound 1. Following incubation for 60 min at 37° C., 100 μL of stop solution (acetonitrile:methanol; 1:1) was added and samples centrifuged for 10 min at 10,000×g. The supernatant was then dried and reconstituted in 10 mM potassium phosphate, pH 5, further transferred to an HPLC glass vial and analyzed by HPLC-UV (described above).

[2] = Radiochemical purity of the test article in dose formulations before and after dosing; assay type: physicochemical; conditions: PEG 200 with 5% DMSO
Experimental: Two dose formulations (50 mg/mL for the IV dose Groups 1A-C and 100 mg/mL for the PO dose Groups 2A-C) were prepared in PEG 200 containing 5% DMSO. Subsamples of the dose formulations were removed before and after the dose administration. An aliquot (10 μL) of each subsample was diluted by adding methanol (490 μL) and 20 mM ammonium formate in water (1500 μL). The diluted dose formulations were analyzed for determination of radiochemical purity by HPLC method 1.
Two dose formulations (50 mg/kg for the IV dose Groups 1A-C and 100 mg/kg for the PO dose Groups 2A-C) were prepared by the following procedure. Both formulations were prepared in PEG 200 containing 5% DMSO. The required amount of radioactive material was weighed and ground to a fine powder with a spatula. 30% of the final volume of PEG 200 and the weighed test article was added to a formulation vial while stirring under magnetic agitation to obtain a uniform formulation. The final volume was made up with PEG 200. The formulation was sonicated at room temperature for 15 minutes or longer to obtain homogenous suspension. The cycles of sonication/agitation were continued until the formulation was homogeneous. Triplicate aliquots were removed for determination of homogeneity (CV). The radioactivity concentration of the formulation was determined and specific activity was calculated.
The dose aliquots were analyzed by HPLC method 1 after diluting 10 μL of each formulation with 490 μL of methanol and 1.5 mL of the aqueous mobile phase.

[3] = tested on: HCV genotype 1b replicon (GS4.1 cells); assay: HCV replicon assay (NS4A ELISA); assay type: cell-based, hepatitis C virus; conditions: Hepatitis C virus, 72 h, 3 days
Experimental: The biological activity of Compound 1, diastereomer 1 and diastereomer 2 was measured by monitoring expression of the NS4A protein by enzyme-linked immunosorbent assay (ELISA) and by luciferase assay as described below:
The HCV replicon assay measures the ability of a test compound to inhibit HCV replication in cell culture after 3 days of treatment in a human hepatoma cell line (Huh-7) bearing the HCV genotype 1b replicon (GS4.1 cells). The inhibition of HCV replication was measured by quantification of viral NS4A protein using an enzyme-linked immunosorbent assay (ELISA). […] Additionally, the replicon contains the neomycin phosphotransferase gene under the control of the HCV promoter (Source: Dr. Christoph Seeger, Fox Chase Cancer Center, Philadelphia, Pa.).
The NS4A ELISA assay is summarized as follows. Ninety-six-well tissue culture plates were seeded with GS4.1 cells. Antiviral compound solutions were made up freshly in medium as 2×-concentrated stocks. Eight additional 3-fold drug dilutions were prepared from these stocks in medium for a total of 9 dilutions. At least four hours after GS4.1 cells were seeded, drug treatment was initiated by adding one volume of each 2× concentrated drug dilution to one volume of cells/medium in the tissue culture plates. Cells were then incubated for 3 days at 37° C./5% CO2.
The media/compound was then removed from the plates and cells were fixed with acetone:methanol, washed three times with a wash solution, and then blocked for 1 hour with 10% fetal bovine serum in a balanced salt solution. Cells were washed three times and incubated with an anti-hepatitis C NS4A monoclonal antibody (Virogen Corp.) for 2 hours at 37° C. […] The reaction was stopped with diluted sulfuric acid (Mallinckrodt Chemicals) and absorbance measured on a Victor^3V 1420 multilabel counter (Perkin Elmer). EC50 values were calculated from dose response curves from the resulting best-fit equations determined by Microsoft Excel and XLfit 4.1 software.

[4] = biological target: CYP2E1 (Homo sapiens, UniProt P05181); assay: Incubation with human recombinant CYP450 supersomes, 2E1; assay type: in vitro ADME; conditions: CYP450 2E1 supersomes, 60 min, 10 μM, average of two experiments
Experimental: as §1

[5] = tested on: CYP3A4; assay: Effect of CYP3A4 inhibitors (ketoconazole, ritonavir) on metabolic stability in monkey liver microsomes; assay type: in vitro ADME; conditions: monkey microsomes 0.5 mg/mL, 30 min, 10 μM, NADPH
Experimental: Incubations were conducted in a final volume of 0.1 mL per incubation time point. […] Final solvent (DMSO or methanol) concentration was maintained at 0.2%. Reactions were initiated by the addition of an NADPH regenerating system (1.3 mM NADP^+, 3.3 mM glucose-6-phosphate, 0.4 U/ml glucose-6-phosphate dehydrogenase, and 3.3 mM MgCl2, final concentrations). Incubations with no inhibitor served as control. Reactions were terminated at 30 min (monkey) or 60 min (rat and human) by the addition of 0.2 mL of stop solution (acetonitrile). The samples were vortex-mixed for 30 sec and then centrifuged at 10,000×g for 10 min. The supernatant was dried using a Labconco CentriVap concentrator and the dry residue reconstituted in water, transferred to an HPLC glass vial and analyzed by HPLC-UV method 1 (described above).
Because Compound 1 is rapidly metabolized in monkey liver microsomes, incubation conditions were adjusted by reducing protein content to 0.5 mg/mL and incubation time to 30 min. Incubation conditions for rat and human were unchanged; protein was 1 mg/mL and incubation time was 60 min.

Sequence of CYP2D6 (P10635 whole entry): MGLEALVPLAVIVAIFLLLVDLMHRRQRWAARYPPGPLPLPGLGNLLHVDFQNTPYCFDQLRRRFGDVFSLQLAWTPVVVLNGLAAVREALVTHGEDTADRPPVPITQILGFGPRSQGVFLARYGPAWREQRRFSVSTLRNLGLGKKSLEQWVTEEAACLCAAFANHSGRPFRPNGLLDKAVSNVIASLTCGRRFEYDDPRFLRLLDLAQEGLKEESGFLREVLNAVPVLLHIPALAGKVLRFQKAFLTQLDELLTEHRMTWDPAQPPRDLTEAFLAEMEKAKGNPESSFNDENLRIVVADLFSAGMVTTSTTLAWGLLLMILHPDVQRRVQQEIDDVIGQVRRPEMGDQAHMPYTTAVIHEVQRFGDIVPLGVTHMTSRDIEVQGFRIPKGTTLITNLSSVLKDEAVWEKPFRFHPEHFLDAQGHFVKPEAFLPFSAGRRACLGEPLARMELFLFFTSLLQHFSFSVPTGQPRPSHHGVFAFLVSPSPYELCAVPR
Sequence of CYP2E1 (P05181 whole entry): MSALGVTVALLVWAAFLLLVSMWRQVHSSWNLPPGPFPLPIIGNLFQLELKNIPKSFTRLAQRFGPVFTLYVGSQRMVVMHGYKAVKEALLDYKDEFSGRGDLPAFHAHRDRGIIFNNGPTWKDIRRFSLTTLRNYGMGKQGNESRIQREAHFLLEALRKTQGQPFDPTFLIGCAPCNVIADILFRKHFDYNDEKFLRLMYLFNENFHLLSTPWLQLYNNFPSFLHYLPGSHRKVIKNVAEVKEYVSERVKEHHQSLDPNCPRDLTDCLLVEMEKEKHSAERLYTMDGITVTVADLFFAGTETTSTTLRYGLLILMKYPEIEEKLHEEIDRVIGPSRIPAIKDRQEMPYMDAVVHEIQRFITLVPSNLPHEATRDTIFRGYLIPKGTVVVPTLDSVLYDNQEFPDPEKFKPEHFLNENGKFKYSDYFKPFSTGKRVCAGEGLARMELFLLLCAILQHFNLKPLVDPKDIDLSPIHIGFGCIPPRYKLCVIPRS

CC(C)(CO)C(=O)SCCOP(=O)(NCc1ccccc1)OC[C@H]1O[C@@H](n2cnc3c(=O)[nH]c(N)nc32)[C@](C)(O)[C@@H]1O (mixture of isomers) [Compound 1, 3-hydroxy-2,2-dimethyl-thiopropionic acid S-(2-{[(2R,3R,4R,5R)-5-(2-amino-6-oxo-1,6-dihydro-purin-9-yl)-3,4-dihydroxy-4-methyl-tetrahydro-furan-2-ylmethoxy]-benzylamino-phosphoryloxy}-ethyl) ester]
% Residual Compound 1 [1]: 102%
Radiochemical Purity of the test article in dose formulation (total of two isomers) ([2]; IV formulation, Groups 1A-C, Postdose): 99.1%
Radiochemical Purity of the test article in dose formulation (total of two isomers) ([2]; IV formulation, Groups 1A-C, Predose): 99.0%
Radiochemical Purity of the test article in dose formulation (total of two isomers) ([2]; PO formulation, Groups 2A-C, Postdose): 98.9%
Radiochemical Purity of the test article in dose formulation (total of two isomers) ([2]; PO formulation, Groups 2A-C, Predose): 98.6%
EC50 [3]: 379 ± 83 nM
% Residual Compound 1 [4]: 100%
% Residual Compound 1 ([5]; Ketoconazole 0.1 μM): 68%
% Residual Compound 1 ([5]; Ketoconazole 1 μM): 125%
% Residual Compound 1 ([5]; Ritonavir 0.1 μM): 41%
% Residual Compound 1 ([5]; Ritonavir 1 μM): 122%
% Residual Compound 1 ([5]; inhibitor 0 μM): 25%
